pIC50: −log10 of the molar value.
What was measured:
hP2X2/3H = target: T1, hP2X2/3H (Homo sapiens, UniProt P56373+Q9UBL9); assay: Calcium uptake assay (Ca influx), P2X antagonist assay, P2X2/3 heteromer; assay type: cell-based; details: inhibition of agonist-induced calcium influx
T1 construct: expressed in transfected cells
T1 sequence (P56373 1-397): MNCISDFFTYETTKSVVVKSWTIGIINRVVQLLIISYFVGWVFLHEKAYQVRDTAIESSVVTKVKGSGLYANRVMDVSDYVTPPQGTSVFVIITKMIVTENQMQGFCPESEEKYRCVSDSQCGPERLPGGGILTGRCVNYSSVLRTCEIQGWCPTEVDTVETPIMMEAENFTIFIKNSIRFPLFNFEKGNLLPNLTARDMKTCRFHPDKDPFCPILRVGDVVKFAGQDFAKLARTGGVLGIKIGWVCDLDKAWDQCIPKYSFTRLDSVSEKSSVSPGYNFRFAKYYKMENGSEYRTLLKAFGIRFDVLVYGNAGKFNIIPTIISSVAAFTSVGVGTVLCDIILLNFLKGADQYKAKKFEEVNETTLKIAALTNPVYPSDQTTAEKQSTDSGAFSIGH
T1 sequence (Q9UBL9 1-471): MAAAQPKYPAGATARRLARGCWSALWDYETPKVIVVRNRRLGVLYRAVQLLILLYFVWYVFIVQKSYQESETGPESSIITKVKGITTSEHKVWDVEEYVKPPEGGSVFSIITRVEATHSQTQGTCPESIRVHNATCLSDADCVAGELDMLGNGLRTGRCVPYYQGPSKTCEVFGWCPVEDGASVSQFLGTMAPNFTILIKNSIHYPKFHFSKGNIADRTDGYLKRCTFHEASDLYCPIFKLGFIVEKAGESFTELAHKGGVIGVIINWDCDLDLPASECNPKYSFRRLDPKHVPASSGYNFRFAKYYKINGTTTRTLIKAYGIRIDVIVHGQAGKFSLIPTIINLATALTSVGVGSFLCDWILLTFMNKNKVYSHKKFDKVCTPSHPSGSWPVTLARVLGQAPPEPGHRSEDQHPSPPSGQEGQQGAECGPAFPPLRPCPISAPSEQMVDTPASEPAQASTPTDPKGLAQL
In short: (§1)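 Receptors expressed in HEK293 or 1321N1 cells, transiently or stably; heteromer from P2X3 transfected into P2X2-stable line. Fluo-4-type dye in HBSS; compound pre-treatment 1–30 min, then agonist (αβMeATP, ATP or analog) at EC50-90. FLIPR peak minus baseline fluorescence; IC50 by 4-parameter fit, 1 pM–10 μM.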

hP2X3 = target: T2, hP2X3 (Homo sapiens, UniProt P56373); assay: Calcium uptake assay (Ca influx), P2X antagonist assay, P2X3 homomer; assay type: cell-based; details: inhibition of agonist-induced calcium influx
T2 construct: expressed in transfected cells
T2 sequence (P56373 1-397): T1 sequence (P56373 1-397)
In short: as §1

SMILES | pIC50 (hP2X2/3H) | pIC50 (hP2X3)
Cc1ccc(-c2cc(C(=O)NCc3cnc(C)nc3)cc(N3CCOCC3=O)c2)c(C#N)c1 [Compound 64, 2′-Cyano-4′-methyl-5-(3-oxo-morpholin-4-yl)-biphenyl-3-carboxylic acid (2-methyl-pyrimidin-5-ylmethyl)-amide] | 6.59 | 7.48
Cc1ccc(-c2cc(C(=O)NCc3ccc(C)nc3)cc(N3CCNCC3=O)c2)c(C#N)c1 [Compound 65, 2′-Cyano-4′-methyl-5-(2-oxo-piperazin-1-yl)-biphenyl-3-carboxylic acid (6-methyl-pyridin-3-ylmethyl)-amide] | 5.97 | 6.93
Cc1ccc(-c2cc(C(=O)NCc3cnc(C)nc3)cc(N3CCNCC3=O)c2)c(C#N)c1 [Compound 66, 2′-Cyano-4′-methyl-5-(2-oxo-piperazin-1-yl)-biphenyl-3-carboxylic acid (2-methyl-pyrimidin-5-ylmethyl)-amide] | 6.14 | 7.07
Cc1ccc(-c2cc(C(=O)NCc3ccc(C)nc3)cc(N3CCN(C)CC3=O)c2)c(C#N)c1 [Compound 67, 2′-Cyano-4′-methyl-5-(4-methyl-2-oxo-piperazin-1-yl)-biphenyl-3-carboxylic acid (6-methyl-pyridin-3-ylmethyl)-amide] | 6.18 | 6.99
Cc1ccc(-c2cc(C(=O)NCc3ccc(C)nc3)cc(N3CCN(C)CC3=O)c2)cc1 [Compound 68, 4′-Methyl-5-(4-methyl-2-oxo-piperazin-1-yl)-biphenyl-3-carboxylic acid (6-methyl-pyridin-3-ylmethyl)-amide] | 5.86 | 6.43
Cc1ccc(-c2cc(C(=O)N[C@@H](C)CO)cc(-c3cc(C)ccc3C#N)c2)nc1 [Compound 71, 2′-Cyano-5′-methyl-5-(5-methyl-pyridin-2-yl)-biphenyl-3-carboxylic acid ((S)-2-hydroxy-1-methyl-ethyl)-amide] | 6.62 | 7.36
Cc1ccc(-c2cc(C(=O)N[C@H](C)CN3CCOCC3)cc(-c3cc(C)ccc3C#N)c2)nc1 [Compound 73, 2′-Cyano-5′-methyl-5-(5-methyl-pyridin-2-yl)-biphenyl-3-carboxylic acid ((R)-1-methyl-2-morpholin-4-yl-ethyl)-amide] | 6.47 | 6.98
COCC(CO)NC(=O)c1cc(-c2ccc(C)cn2)cc(-c2cc(C)ccc2C#N)c1 (stereo not drawn) [Compound 74, 2′-Cyano-5′-methyl-5-(5-methyl-pyridin-2-yl)-biphenyl-3-carboxylic acid (2-hydroxy-1-methoxymethyl-ethyl)-amide] | 5.25 | 6.86
Cc1ccc(-c2cc(C(=O)N[C@H](C)CN3CCOCC3)cc(-c3cccc(F)c3F)c2)nc1 [Compound 77, (R)-2′,3′-difluoro-5-(5-methylpyridin-2-yl)-N-(1-morpholinopropan-2-yl)biphenyl-3-carboxamide] | 6.43 | 7.00
COCC(CO)NC(=O)c1cc(-c2ccc(C)cn2)cc(-c2cccc(F)c2F)c1 (stereo not drawn) [Compound 78, 2′,3′-Difluoro-5-(5-methyl-pyridin-2-yl)-biphenyl-3-carboxylic acid (2-hydroxy-1-methoxymethyl-ethyl)-amide] | 5.14 | 6.66
Cc1ccc(-c2cc(C(=O)N[C@@H](C)CO)cc(-c3cc(C(F)(F)F)ccc3C#N)c2)nc1 [Compound 79, 2′-Cyano-5-(5-methyl-pyridin-2-yl)-5′-trifluoromethyl-biphenyl-3-carboxylic acid ((S)-2-hydroxy-1-methyl-ethyl)-amide] | 6.35 | 7.14
Cc1ccc(-c2cc(C(=O)N[C@H](C)CN3CCOCC3)cc(-c3cc(C(F)(F)F)ccc3C#N)c2)nc1 [Compound 80, (R)-2′-cyano-5-(5-methylpyridin-2-yl)-N-(1-morpholinopropan-2-yl)-5′-(trifluoromethyl)biphenyl-3-carboxamide] | 6.66 | 6.45
Cc1ccc(-c2cc(C(=O)N[C@@H](C)CO)cc(-c3ncccc3C(F)(F)F)c2)nc1 [Compound 81, N-((S)-2-Hydroxy-1-methyl-ethyl)-3-(5-methyl-pyridin-2-yl)-5-(3-trifluoromethyl-pyridin-2-yl)-benzamide] | 5.91 | 7.31
Cc1ccc(-c2cc(C(=O)N[C@H](C)CN3CCOCC3)cc(-c3c(F)cccc3C(F)(F)F)c2)nc1 [Compound 83, 2′-Fluoro-5-(5-methyl-pyridin-2-yl)-6′-trifluoromethyl-biphenyl-3-carboxylic acid ((R)-1-methyl-2-morpholin-4-yl-ethyl)-amide] | 7.59 | 7.14
Cc1ccc(-c2cc(C(=O)N[C@@H](C)CO)cc(-c3cnccc3C#N)c2)nc1 [Compound 84, 3-(4-Cyano-pyridin-3-yl)-N-((S)-2-hydroxy-1-methyl-ethyl)-5-(5-methyl-pyridin-2-yl)-benzamide] | 6.07 | 7.99
Cc1ccc(-c2cc(C(=O)N[C@@H](C)CO)cc(-c3cccc(F)c3F)c2)c(C#N)c1 [Compound 85, 2-Cyano-2″,3″-difluoro-4-methyl-[1,1′;3′,1″]terphenyl-5′-carboxylic acid ((S)-2-hydroxy-1-methyl-ethyl)-amide] | 5.87 | 7.50
Cc1ccc(-c2cc(C(=O)N[C@@H](C)CO)cc(-c3cnccc3C#N)c2)c(C#N)c1 [Compound 86, 2′-Cyano-5-(4-cyano-pyridin-3-yl)-4′-methyl-biphenyl-3-carboxylic acid ((S)-2-hydroxy-1-methyl-ethyl)-amide] | 7.55 | 8.66
Cc1ccc(-c2cc(C(=O)N[C@H](C)CN3CCOCC3)cc(-c3cnccc3C#N)c2)c(C#N)c1 [Compound 87, (R)-2′-Cyano-5-(4-cyanopyridin-3-yl)-4′-methyl-N-(1-morpholinopropan-2-yl)biphenyl-3-carboxamide] | 7.73 | 7.65
